# Results as given in patent US9232790B2, “Antimicrobial cleansing compositions” (KIMBERLY-CLARK WORLDWIDE, INC., priority 2011, dated 2016).
# Assays:
# Type in all cases: cell-based
# E. coli K12 (ATCC 29425) [1] = assay: Impact of other betaine-based surfactants on benzalkonium chloride efficacy against E. coli K12; conditions: 60 seconds contact, 0.3 g/L bovine serum albumin; for LOG10 CFU/ml Reduction, 0.3% benzalkonium chloride + 3.5% surfactant: 0.3% benzalkonium chloride combined with 3.5% of the named betaine-based surfactant
# Description: In this Example, the impact of other betaine-based surfactants on the antimicrobial activity of benzalkonium chloride against E. coli K12 (ATCC 29425) was analyzed.
# Specifically, E. coli K12 was contacted for 60 seconds in a 0.3 g/L solution of bovine serum albumin mixed with a solution containing benzalkonium chloride, with or without a betaine-based surfactant (3.5% w/w active).
# [2] = tested on: P. aeruginosa (ATCC 15442); assay: Impact of CAPB on cationic biocides, 60 second contact test against P. aeruginosa; conditions: 0.3% active, 60 seconds contact, 0.3 g/L bovine serum albumin; for LOG10 CFU/ml Reduction, w/ CAPB: with CAPB 3.5% w/w active; for LOG10 CFU/ml Reduction, w/o CAPB: without CAPB
# Description: In this Example, the impact of cocamidopropyl betaine (CAPB) on the antimicrobial activity of cationic biocides against P. aeruginosa (ATCC 15442) was analyzed.
# Specifically, P. aeruginosa was contacted for 60 seconds in a 0.3 g/L solution of bovine serum albumin and mixed with a solution containing a cationic biocide, with or without CAPB (3.5% w/w active).
# E. coli K12 (ATCC 29425) [3] = assay: Impact of CAPB on cationic biocides, 60 second contact test against E. coli K12; conditions: 0.3% active, 60 seconds contact, 0.3 g/L bovine serum albumin; for LOG10 CFU/ml Reduction, w/ CAPB: with CAPB 3.5% w/w active; for LOG10 CFU/ml Reduction, w/o CAPB: without CAPB
# Description: In this Example, the impact of cocamidopropyl betaine (CAPB) on the antimicrobial activity of cationic biocides against E. coli K12 (ATCC 29425) was analyzed.
# Specifically, E. coli K12 was contacted for 60 seconds in a 0.3 g/L solution of bovine serum albumin mixed with a solution containing a cationic biocide, with or without CAPB (3.5% w/w active).
# E. faecalis (ATCC 29212) = assay: Impact of CAPB on cationic biocides, 60 second contact test against E. faecalis; conditions: 0.3% active, 60 seconds contact, 0.3 g/L bovine serum albumin; for LOG10 CFU/ml Reduction, w/ CAPB: with CAPB 3.5% w/w active; for LOG10 CFU/ml Reduction, w/o CAPB: without CAPB
# Description: In this Example, the impact of cocamidopropyl betaine (CAPB) on the antimicrobial activity of cationic biocides against E. faecalis (ATCC 29212) was analyzed.
# Specifically, E. faecalis was contacted for 60 seconds in a 0.3 g/L solution of bovine serum albumin mixed with a solution containing a cationic biocide, with or without CAPB (3.5% w/w active).
# S. aureus (ATCC 6538) = assay: Impact of CAPB on cationic biocides, 60 second contact test against S. aureus; conditions: 0.3% active, 60 seconds contact, 0.3 g/L bovine serum albumin; for LOG10 CFU/ml Reduction, w/ CAPB: with CAPB 3.5% w/w active; for LOG10 CFU/ml Reduction, w/o CAPB: without CAPB
# Description: In this Example, the impact of cocamidopropyl betaine (CAPB) on the antimicrobial activity of cationic biocides against S. aureus (ATCC 6538) was analyzed.
# Specifically, S. aureus was contacted for 60 seconds in a 0.3 g/L solution of bovine serum albumin mixed with a solution containing a cationic biocide, with or without CAPB (3.5% w/w active).
Compound,"LOG10 CFU/ml Reduction, 0.3% benzalkonium chloride + 3.5% surfactant (E. coli K12 (ATCC 29425) [1])","LOG10 CFU/ml Reduction, w/ CAPB [2]","LOG10 CFU/ml Reduction, w/o CAPB [2]","LOG10 CFU/ml Reduction, w/ CAPB (E. coli K12 (ATCC 29425) [3])","LOG10 CFU/ml Reduction, w/o CAPB (E. coli K12 (ATCC 29425) [3])","LOG10 CFU/ml Reduction, w/ CAPB (E. faecalis (ATCC 29212))","LOG10 CFU/ml Reduction, w/o CAPB (E. faecalis (ATCC 29212))","LOG10 CFU/ml Reduction, w/ CAPB (S. aureus (ATCC 6538))","LOG10 CFU/ml Reduction, w/o CAPB (S. aureus (ATCC 6538))","LOG10 CFU/ml Reduction, w/ CAPB (S. aureus (ATCC 6538); listed as didecyldimonium chloride)","LOG10 CFU/ml Reduction, 0.3% benzalkonium chloride (E. coli K12 (ATCC 29425) [1]; 0.3% benzalkonium chloride alone)"
Lauramidopropyl betaine,<3.0 LOG10 CFU/ml,–,–,–,–,–,–,–,–,–,–
Coco-betaine,<3.1 LOG10 CFU/ml,–,–,–,–,–,–,–,–,–,–
N=C(NCCCCCCNC(=N)NC(=N)Nc1ccc(Cl)cc1)NC(=N)Nc1ccc(Cl)cc1.O=C(O)[C@H](O)[C@@H](O)[C@H](O)[C@H](O)CO.O=C(O)[C@H](O)[C@@H](O)[C@H](O)[C@H](O)CO [Chlorhexidine gluconate],–,<3.3 LOG10 CFU/ml,>5.7 LOG10 CFU/ml,<3.1 LOG10 CFU/ml,5.5 LOG10 CFU/ml,<3.3 LOG10 CFU/ml,<3.3 LOG10 CFU/ml,<2.4 LOG10 CFU/ml,3.2 LOG10 CFU/ml,–,–
CC(C)(C)CC(C)(C)c1ccc(OCCOCC[N+](C)(C)Cc2ccccc2)cc1 [Benzethonium chloride],–,<3.3 LOG10 CFU/ml,>5.7 LOG10 CFU/ml,<3.1 LOG10 CFU/ml,>5.5 LOG10 CFU/ml,<3.3 LOG10 CFU/ml,4.8 LOG10 CFU/ml,<2.4 LOG10 CFU/ml,>4.9 LOG10 CFU/ml,–,–
CCCCCCCCCCCC[N+](C)(C)CC(=O)[O-] [Lauryl betaine],<3.1 LOG10 CFU/ml,–,–,–,–,–,–,–,–,–,–
Meadowfoamamidopropyl betaine,<3.0 LOG10 CFU/ml,–,–,–,–,–,–,–,–,–,–
CCCCCCCCCC[N+](C)(C)CCCCCCCCCC.[Cl-] [Didecyldimonium chloride],–,<3.3 LOG10 CFU/ml,>5.7 LOG10 CFU/ml,<3.1 LOG10 CFU/ml,4.5 LOG10 CFU/ml,<3.3 LOG10 CFU/ml,>5.7 LOG10 CFU/ml,4 LOG10 CFU/ml,>4.9 LOG10 CFU/ml,4.0 LOG10 CFU/ml,–
Benzalkonium chloride,–,<3.3 LOG10 CFU/ml,>5.7 LOG10 CFU/ml,<3.1 LOG10 CFU/ml,>5.5 LOG10 CFU/ml,<3.3 LOG10 CFU/ml,>5.7 LOG10 CFU/ml,<2.4 LOG10 CFU/ml,>4.9 LOG10 CFU/ml,–,>5.5 LOG10 CFU/ml
